Literature values as cited in paper PMC7114426 (Virus Research, 2012).

Test system: nsp16

SMILES | inhibition of the MTase activity of nsp16
O=C(O)C1=CC(=C(c2ccc(O)c(C(=O)O)c2)c2ccc(O)c(C(=O)O)c2)C=CC1=O [ATA, aurintricarboxylic acid] | inhibit the MTase activity of nsp16
Nc1ncnc2c1ncn2[C@@H]1O[C@H](CSCC[C@H](N)C(=O)O)[C@@H](O)[C@H]1O [SAH, S-adenosyl-l-homocysteine] | inhibit the MTase activity of nsp16
Nc1ncnc2c1ncn2[C@@H]1O[C@H](C[C@@H](N)CC[C@H](N)C(=O)O)[C@@H](O)[C@H]1O [sinefungin] | inhibit the MTase activity of nsp16
